# From patent US5354892A, “Biaryl substituted 4-amino-butyric acid amides” (Ciba-Geigy Corporation, priority 1993, dated 1994)
# Experiments:
# [1] = test system: rat plasma ANF concentration; test: Effect on rat plasma ANF concentration (ANF-infused conscious rats, radioimmunoassay); format: in vivo; conditions: doses of about 1-30 mg/kg p.o., administered in 10% ethanol/PEG 400, ANF infusion 450 ng/kg/min i.v.
# Procedure: The effect of the compounds of the invention on rat plasma ANF concentration can be determined as follows:
# Male Sprague-Dawley rats (275-390 g) are anesthetized -with ketamine (150 mg/kg)/acepromazine (10%) and instrumented with catheters in the femoral artery and vein to obtain blood samples and infuse ANF. respectively. The rats are tethered with a swivel system and are allowed to recover for 24 hours before being studied in the conscious, unrestrained state.
# In this assay, plasma ANF levels are determined in the presence and absence of NEP inhibition. On the day of study, all rats are infused continuously with ANF at 450 ng/kg/min. i.v. for the entire 5 hours of the experiment. Sixty minutes after beginning the infusion, blood samples for baseline ANF measurements are obtained (time 0) and the rats are then randomly divided into groups treated with the test compound or vehicle. Additional blood samples are taken 30, 60, 120, 180 and 240 minutes after administration of the test compound.
# Plasma concentrations are determined by a specific radioimmunoassay. […] The supernatant is decanted and the pellets counted in a gamma counter. […] Plasma ANF levels are expressed as a percent of those measured in vehicle-treated animals which received ANF alone (450 ng/kg/min i.v.).
# [2] = test system: DOCA-salt hypertensive rats; test: Antihypertensive effect in DOCA-salt hypertensive rats; format: in vivo; conditions: DOCA-salt hypertensive rat model; 30 mg/kg p.o., administered in PEG 400
# Procedure: The antihypertensive effect can be determined in desoxycorticosterone acetate (DOCA)-salt hypertensive rats.
# DOCA-salt hypertensive rats (280-380 g) are prepared by the standard method. Rats underwent a unilateral nephrectomy and one week later are implanted with silastic pellets containing 100 mg/kg of DOCA. The rats are maintained on 1% NaCl/0.2% KCl drinking water for three to five weeks until sustained hypertension is established. The antihypertensive activity is evaluated at this time.
# Two days before an experiment, the rats are anesthetized with methoxyflurane and instrumented with catheters in the femoral artery to measure arterial blood pressure. Forty-eight hours later, baseline arterial pressure and heart rate are recorded during a 1 hour period. The test compound (30 mg/kg p.o.) or vehicle is then administered and the same cardiovascular parameters are monitored for an additional 5 hours.
smiles,measurement,setting,value
CCOC(=O)[C@H](C)C[C@@H](Cc1ccc(-c2ccccc2)cc1)NC(=O)CCC(=O)O [N-(3-carboxy-1-oxopropyl)-(4S)-(p-phenylphenylmethyl)-4-amino-2R-methylbutanoic acid ethyl ester],plasma ANF levels,[1],significant increases in plasma ANF levels
same,blood pressure,[2],significant reduction in blood pressure
